The results in this text go back to paper PMC5971061, “Differential Effects of Linkers on the Activity of Amphiphilic Tobramycin Antifungals” (Molecules : A Journal of Synthetic Chemistry and Natural …, 2018).

In data set [1] the test system is Aspergillus terreus ATCC MYA-3633 (strain M). The data set can be described thus: MIC, filamentous fungi (CLSI M38-A2), strain M. In kind it is cell-based. The following applies: MIC-0, strain M, 35 °C 72 h. The protocol: (§1) The spores were harvested from sporulating cultures growing on potato dextrose agar (PDA) by filtration through sterile glass wool and enumerated by using a hemocytometer (Hausser Scientific, Horsham, PA, USA) to obtain the desired inoculum size. Two-fold serial dilutions of compounds 3, 4, 7a, 7b, 9, and 16, as well as CAS and TOB were made in sterile 96-well microtiter plates to obtain the final concentration range of 0.24–62.5 μg/mL for TOB and TOB derivatives as well as 0.03–31.3 μg/mL for CAS in the RPMI 1640 medium. The spore suspensions were added to the wells to afford a final concentration of 5 × 10^5 spores/mL. The plates were incubated at 35 °C for 72 h. […] Each test was performed in triplicate.

The subject of data set [2] is Aspergillus flavus ATCC MYA-3631 (strain K). As to the kind of experiment: MIC, filamentous fungi (CLSI M38-A2), strain K. In kind it is cell-based. The conditions noted are these: MIC-0, strain K, 35 °C 72 h. The method, then:
as §1

For data set [3], the system named is Candida parapsilosis clinical isolate CP1. As to the kind of experiment: MIC, broth microdilution (CLSI M27-A3), CP1. In kind it is cell-based. The following applies: Lodderomyces parapsilosis; MIC-0, CP1, 35 °C 48 h. The method, then: (§2) The final concentrations of compounds 3, 4, 7a, 7b, 9, and 16, as well as that of TOB tested in this study ranged from 0.24–62.5 μg/mL. CAS was used as a positive control and the final concentrations tested for CAS ranged from 0.03–31.3 μg/mL. Briefly, overnight yeast cultures were grown in yeast peptone dextrose (YPD) broth and the cell density was adjusted to an OD600 of 0.12 (~1 × 10^6 CFU/mL) by using a spectrophotometer. Yeast cell suspensions were further diluted to achieve 1–5 × 10^3 CFU/mL in RPMI 1640 medium, and 100 μL of these yeast cells was added to 96-well microtiter plates containing RPMI 1640 medium and titrated compounds. Each test was performed in triplicate. The plates were incubated at 35 °C for 48 h.
On the technique in general: Broth dilution looks for growth in wells or tubes with falling amounts of substance.

The subject of data set [4] is Candida parapsilosis clinical isolate CP3. As to the kind of experiment: MIC, broth microdilution (CLSI M27-A3), CP3. In kind it is cell-based. The conditions noted are these: MIC-0, CP3, 35 °C 48 h. The protocol: as §2
Another data set deals with A549 cell line. As to the kind of experiment: In vitro cytotoxicity assay (resazurin), A549. In kind it is cell-based, human. The following applies: for IC50: Homo sapiens, A549, 24 h, resazurin. The protocol: (§3) Mammalian cytotoxicity assays were performed as previously described with minor modifications. The normal human bronchial epithelial cells BEAS-2B and the human lung carcinoma epithelial cells A549 were grown in DMEM containing 10% fetal bovine serum (FBS) and 1% antibiotics. The confluent cells were then trypsinized with 0.05% trypsin and 0.53 mM EDTA, and resuspended in fresh DMEM medium. The cells were transferred into 96-well microtiter plates at a density of 3000 cells/well and were grown for 24 h. The following day, the medium was replaced by a fresh culture medium containing serially diluted compounds 3, 4, 7a, 7b, and 9, as well as the parent drug TOB at final concentrations of 0.48–62.5 μg/mL or sterile ddH2O (negative control). The cells were incubated for an additional 24 h at 37 °C with 5% CO2 in a humidified incubator. To evaluate cell survival, each well was treated with 10 μL (25 μg/mL) of resazurin sodium salt (Sigma-Aldrich) for 4–6 h. Metabolically active cells can convert resazurin (blue) to the highly fluorescent dye resorufin (pink), which was detected at λ560 excitation and λ590 emission wavelengths by using a SpectraMax M5 plate reader. Triton X-100® (1% v/v) gave the complete loss of cell viability and was used as the positive control. The percentage survival rates were calculated by using the following formula: % cell survival = [(fluorescence of sample) − (fluorescence of blank)] × 100/[(fluorescence of negative control) − (fluorescence of blank)].
(In general: Resazurin is reduced to fluorescent resorufin, in cell work by metabolically active cells.)

In another data set the test system is BEAS-2B cell line. The data set can be described thus: In vitro cytotoxicity assay (resazurin), BEAS-2B. In kind it is cell-based, human. The following applies: 24 h; for IC50: Homo sapiens, resazurin. The method, then:
as §3

In data set [5] the test system is Candida glabrata clinical isolate CG1. The data set can be described thus: MIC, broth microdilution (CLSI M27-A3), CG1. The following applies: Nakaseomyces glabratus; MIC-0, CG1, 35 °C 48 h. In kind it is cell-based. The protocol:
as §2

Data set [6] deals with C. albicans ATCC MYA-2310(S) (strain E). As to the kind of experiment: MIC, broth microdilution (CLSI M27-A3), yeast strain E. The following applies: Candida albicans; MIC-0, strain E, 35 °C 48 h. In kind it is cell-based. The protocol:
as §2

Data set [7] concerns murine red blood cells (mRBCs). As to the kind of experiment: Hemolytic activity assay. In kind it is cell-based. The conditions noted are these: at 3.9 μg/mL, 2- to 8-fold their MIC values against the three C. neoformans clinical isolates. Put shortly: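 Murine RBCs (5 × 10^6 erythrocytes/mL final) incubated with two-fold serial dilutions of compound (0.48–62.5 μg/mL final) in PBS for 1 h at 37 °C. Hemolysis by absorbance, expressed as % relative to 1% Triton X-100 after blank (PBS) subtraction.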

[8] abbreviates: Aspergillus flavus, 72 h, read-out: MIC.

Values after ≈ are worked out from the molar mass of the structure shown. Like-named read-outs stand apart in the source and are kept apart here. Bounds are passed on as bounds.

By MIC is commonly meant the least concentration at which growth counts as inhibited. With `NC[C@H]1O[C@H](O[C@H]2[C@H](O)[C@@H](O[C@H]3O[C@H](CO)[C@@H](O)[C@H](N)[C@H]3O)[C@H](N)C[C@@H]2N)[C@H](N)C[C@@H]1O` [TOB, tobramycin], the MIC in data set [1], in data set [2] (setting [8]), in data set [3], in [4], in data set [5] and in data set [6] was more than 62.5 µg/mL each time. Further, the “toxicity (in words)” value is reported as “little to no toxicity” with A549 cell line (A549, 0.48-62.5 μg/mL, 24 h) and “little to no toxicity” in the data set on BEAS-2B cell line (0.48-62.5 μg/mL).
In general, IC50 refers to the concentration that inhibits the measured activity by half. Higher therefore signals weaker potency. `CCCCCCCCCCCCc1cn(C[C@H]2O[C@H](O[C@@H]3[C@@H](O)[C@H](O[C@H]4O[C@H](CN)[C@@H](O)C[C@H]4N)[C@@H](N)C[C@H]3N)[C@H](O)[C@@H](N)[C@@H]2O)nn1` [Compound 7b, O-3-Amino-3,6-dideoxy-6-(4-dodecyl-1H-1,2,3-triazol-1-yl)-α-D-glucopyranosyl-(1→6)-O-[2,6-diamino-2,3,6-trideoxy-α-D-ribo-hexopyranosyl-(1→4)]-2-deoxy-D-streptamine]: the MIC is 62.5 µg/mL (≈ 91 µM) in [1]; 7.8 to 31.3 µg/mL (≈ 11.4 to 45.6 µM) in data set [2] (setting [8]); 7.8 µg/mL (≈ 11.4 µM) in data set [2]; 3.9 µg/mL (≈ 5.68 µM) in data set [3]; 7.8 µg/mL (≈ 11.4 µM) in data set [4]; 3.9 µg/mL (≈ 5.68 µM) in [5]. Besides, in [6], inhibition of growth (MIC) required 7.8 µg/mL (≈ 11.4 µM). Also, the concentration for half-maximal inhibition (IC50) in the data set on A549 cell line and with BEAS-2B cell line was more than 62.5 µg/mL in each case. Moreover, the mRBCs lysed entry in data set [7] is recorded as “up to 13%”.
Take `CCCCCCCCCCCCS(=O)(=O)C[C@H]1O[C@H](O[C@@H]2[C@@H](O)[C@H](O[C@H]3O[C@H](CN)[C@@H](O)C[C@H]3N)[C@@H](N)C[C@H]2N)[C@H](O)[C@@H](N)[C@@H]1O` [Compound 4, O-3-Amino-3,6-dideoxy-6-(dodecylsulfonyl)-α-D-glucopyranosyl-(1→6)-O-[2,6-diamino-2,3,6-trideoxy-α-D-ribo-hexopyranosyl-(1→4)]-2-deoxy-D-streptamine]: the MIC in [1] is 62.5 µg/mL (≈ 91.4 µM); in data set [3], 3.9 µg/mL (≈ 5.7 µM); in data set [4], 7.8 µg/mL (≈ 11.4 µM); in data set [5], 7.8 µg/mL (≈ 11.4 µM); in data set [6], 15.6 µg/mL (≈ 22.8 µM). Moreover, the IC50 with A549 cell line and in the data set with BEAS-2B cell line was more than 62.5 µg/mL throughout. Besides, in data set [7], the mRBCs lysed result is listed as “up to 13%”.
Turning to `CCCCCCCCCCCC(=O)NC[C@H]1O[C@H](O[C@@H]2[C@@H](O)[C@H](O[C@H]3O[C@H](CN)[C@@H](O)C[C@H]3N)[C@@H](N)C[C@H]2N)[C@H](O)[C@@H](N)[C@@H]1O` [Compound 9, O-3-Amino-3,6-dideoxy-6-[(1-oxododecyl)amino]-α-D-glucopyranosyl-(1→6)-O-[2,6-diamino-2,3,6-trideoxy-α-D-ribo-hexopyranosyl-(1→4)]-2-deoxy-D-streptamine], the MIC was more than 62.5 µg/mL in data set [1]; 31.3 µg/mL (≈ 48.2 µM) in data set [3]; 31.3 µg/mL (≈ 48.2 µM) in data set [4]; 15.6 µg/mL (≈ 24 µM) in data set [5]; 31.3 µg/mL (≈ 48.2 µM) in data set [6]. In addition, the IC50 in the data set with A549 cell line and in the data set with BEAS-2B cell line was more than 62.5 µg/mL in each case. Also, the mRBCs lysed entry in data set [7] is on record as “up to 13%”.
For the compound `CCCCCCCCCCCCSC[C@H]1O[C@H](O[C@@H]2[C@@H](O)[C@H](O[C@H]3O[C@H](CN)[C@@H](O)C[C@H]3N)[C@@H](N)C[C@H]2N)[C@H](O)[C@@H](N)[C@@H]1O` [Compound 3, O-3-Amino-3-deoxy-6-S-dodecyl-6-thio-α-D-glucopyranosyl-(1→6)-O-[2,6-diamino-2,3,6-trideoxy-α-D-ribo-hexopyranosyl-(1→4)]-2-deoxy-D-streptamine], the minimal inhibitory concentration (MIC) in [1] is more than 62.5 µg/mL; in [2] (setting [8]), 7.8 to 31.3 µg/mL (≈ 12 to 48 µM); in [2], 15.6 µg/mL (≈ 23.9 µM); in [3], 15.6 µg/mL (≈ 23.9 µM); in [4], 15.6 µg/mL (≈ 23.9 µM); in data set [5], 15.6 µg/mL (≈ 23.9 µM). This compound also displayed an MIC in data set [6] of 15.6 µg/mL (≈ 23.9 µM). In the data set on BEAS-2B cell line, this compound registered an IC50 of 31.3 to 62.5 µg/mL (≈ 48 to 95.9 µM). Also, in data set [7], the mRBCs lysed entry is listed as “up to 13%”.
In the case of `CCCCCCCCCCc1cn(C[C@H]2O[C@H](O[C@@H]3[C@@H](O)[C@H](O[C@H]4O[C@H](CN)[C@@H](O)C[C@H]4N)[C@@H](N)C[C@H]3N)[C@H](O)[C@@H](N)[C@@H]2O)nn1` [Compound 7a, O-3-Amino-3,6-dideoxy-6-(4-decyl-1H-1,2,3-triazol-1-yl)-α-D-glucopyranosyl-(1→6)-O-[2,6-diamino-2,3,6-trideoxy-α-D-ribo-hexopyranosyl-(1→4)]-2-deoxy-D-streptamine], the MIC in [1] is more than 62.5 µg/mL; in data set [3], 15.6 µg/mL (≈ 23.7 µM); in [4] it was 31.3 µg/mL (≈ 47.5 µM); in data set [5] it was 31.3 µg/mL (≈ 47.5 µM); in data set [6] it was 31.3 µg/mL (≈ 47.5 µM). Further, the IC50 in the data set with A549 cell line and in the data set with BEAS-2B cell line was more than 62.5 µg/mL each time. The mRBCs lysed result in data set [7] is “up to 13%”.
